{
  "source": "paper PMC7377239",
  "about": "“Cardiovascular Effects of Polychlorinated Biphenyls and Their Major Metabolites” (Environmental Health Perspectives, 2020)",
  "key": {"[1]": {"system": "iCell endothelial cells (human iPSC-derived ECs)", "assay": "Tube formation (tubulogenesis) assay in iCell endothelial cells, 18 h", "assay_type": "cell-based", "conditions": "Homo sapiens, Endothelial cell, iPSC-EC tube formation, 18 hr; for activity at 0.1 µM: 0.10 µM; for minimal effective concentration: top concentration 100.00 µM", "how_it_was_run": "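Tube formation was measured by calcein AM imaging after overnight compound exposure (37°C, 0.5% DMSO vehicle) of human iPSC-derived ECs, 7,500/well, on reduced-growth-factor Geltrex in starvation medium. Vehicle-normalized data fitted to four-parameter logistic; POD set at one vehicle SD; without response, 100 μM taken as NOAEL.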"}, "[2]": {"system": "HUVECs", "assay": "High-content imaging cytotoxicity in HUVECs, 24 h", "assay_type": "cell-based, human", "conditions": "Homo sapiens, HUVEC, 24 h, HUVECs; for viability at 0.01 µM / activity at 0.01 µM / viability at 0.1 µM / activity at 0.1 µM / viability at 1 µM / activity at 1 µM / viability at 10 µM / activity at 10 µM / viability at 100 µM / activity at 100 µM: 0.00 µM = 100.00; for viability at 0.1 µM / activity at 0.1 µM: 0.10 µM; for minimal effective concentration: top concentration 100.00 µM", "how_it_was_run": "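Point-of-departure values come from four-parameter logistic fits of vehicle-normalized (0.5% DMSO) imaging readouts, cutoff one SD of vehicle means, 100μM where no concentration–response. Cells: HUVEC monolayers, passages 1–5, treated 24 h at 37°C, 5% CO2, then Hoechst 33342/MitoTracker Orange/calcein AM stained, imaged at 10×.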"}, "[3]": {"conditions": "0.00 µM control = 100.00, read-out: endo.mtl.18hr"}, "[4]": {"conditions": "0.00 µM control = 100.00, read-out: endo.tlps.18hr"}, "[5]": {"conditions": "0.00 µM control = 100.00, read-out: endo.tta.18hr"}, "[6]": {"conditions": "0.00 µM control = 100.00, read-out: endo.ttl.18hr"}, "[7]": {"conditions": "24 hr, read-out: huvec.cyto.24hr"}, "[8]": {"conditions": "24 hr, read-out: huvec.mito.24hr"}, "[9]": {"conditions": "24 hr, read-out: huvec.mitoint.24hr"}, "[10]": {"conditions": "24 hr, read-out: huvec.nma.24hr"}, "[11]": {"conditions": "24 hrs, read-out: huvec.tc.24hrs"}},
  "note": "Like-named read-outs stand apart in the source and are kept apart here.",
  "data": [
    {"smiles": "Oc1ccccc1-c1ccc(Cl)cc1", "note": "[2'-OH PCB3]", "values": [
      {"measurement": "activity at 0.01 µM", "setting": "[1]; [3]", "result": 114, "unit": "%"},
      {"measurement": "activity at 0.01 µM", "setting": "[1]; [4]", "result": 123, "unit": "%"},
      {"measurement": "activity at 0.01 µM", "setting": "[1]; [5]", "result": 120, "unit": "%"},
      {"measurement": "activity at 0.01 µM", "setting": "[1]; [6]", "result": 113, "unit": "%"},
      {"measurement": "activity at 0.1 µM", "setting": "[1]; [3]", "result": 106, "unit": "%"},
      {"measurement": "activity at 0.1 µM", "setting": "[1]; [4]", "result": 118, "unit": "%"},
      {"measurement": "activity at 0.1 µM", "setting": "[1]; [5]", "result": 103, "unit": "%"},
      {"measurement": "activity at 0.1 µM", "setting": "[1]; [6]", "result": 103, "unit": "%"},
      {"measurement": "activity at 1 µM", "setting": "[1]; [3]", "result": 100, "unit": "%"},
      {"measurement": "activity at 1 µM", "setting": "[1]; [4]", "result": 102, "unit": "%"},
      {"measurement": "activity at 1 µM", "setting": "[1]; [5]", "result": 99.3, "unit": "%"},
      {"measurement": "activity at 1 µM", "setting": "[1]; [6]", "result": 98.8, "unit": "%"},
      {"measurement": "activity at 10 µM", "setting": "[1]; [3]", "result": 91.1, "unit": "%"},
      {"measurement": "activity at 10 µM", "setting": "[1]; [4]", "result": 76.6, "unit": "%"},
      {"measurement": "activity at 10 µM", "setting": "[1]; [5]", "result": 98, "unit": "%"},
      {"measurement": "activity at 10 µM", "setting": "[1]; [6]", "result": 91.8, "unit": "%"},
      {"measurement": "activity at 100 µM", "setting": "[1]; [3]", "result": 54.3, "unit": "%"},
      {"measurement": "activity at 100 µM", "setting": "[1]; [4]", "result": 20.2, "unit": "%"},
      {"measurement": "activity at 100 µM", "setting": "[1]; [5]", "result": 18.5, "unit": "%"},
      {"measurement": "activity at 100 µM", "setting": "[1]; [6]", "result": 21.2, "unit": "%"},
      {"measurement": "minimal effective concentration", "setting": "[1]; read-out: endo.mtl.18hr POD", "result": 13.4, "unit": "µM"},
      {"measurement": "minimal effective concentration", "setting": "[1]; read-out: endo.tlps.18hr POD", "result": 9.27, "unit": "µM"},
      {"measurement": "minimal effective concentration", "setting": "[1]; read-out: endo.tta.18hr POD", "result": 29.9, "unit": "µM"},
      {"measurement": "minimal effective concentration", "setting": "[1]; read-out: endo.ttl.18hr POD", "result": 23.1, "unit": "µM"},
      {"measurement": "viability at 0.01 µM", "setting": "[2]; [7]", "result": 88.2, "unit": "%"},
      {"measurement": "activity at 0.01 µM", "setting": "[2]; [8]", "result": 87.7, "unit": "%"},
      {"measurement": "activity at 0.01 µM", "setting": "[2]; [9]", "result": 94.4, "unit": "%"},
      {"measurement": "activity at 0.01 µM", "setting": "[2]; [10]", "result": 93.4, "unit": "%"},
      {"measurement": "viability at 0.1 µM", "setting": "[2]; [7]", "result": 84.3, "unit": "%"},
      {"measurement": "activity at 0.1 µM", "setting": "[2]; [8]", "result": 84, "unit": "%"},
      {"measurement": "activity at 0.1 µM", "setting": "[2]; [9]", "result": 125, "unit": "%"},
      {"measurement": "activity at 0.1 µM", "setting": "[2]; [10]", "result": 97.1, "unit": "%"},
      {"measurement": "viability at 1 µM", "setting": "[2]; [7]", "result": 93, "unit": "%"},
      {"measurement": "activity at 1 µM", "setting": "[2]; [8]", "result": 92.5, "unit": "%"},
      {"measurement": "activity at 1 µM", "setting": "[2]; [9]", "result": 107, "unit": "%"},
      {"measurement": "activity at 1 µM", "setting": "[2]; [10]", "result": 95.6, "unit": "%"},
      {"measurement": "viability at 10 µM", "setting": "[2]; [7]", "result": 90.2, "unit": "%"},
      {"measurement": "activity at 10 µM", "setting": "[2]; [8]", "result": 88.2, "unit": "%"},
      {"measurement": "activity at 10 µM", "setting": "[2]; [9]", "result": 104, "unit": "%"},
      {"measurement": "activity at 10 µM", "setting": "[2]; [10]", "result": 92.6, "unit": "%"},
      {"measurement": "viability at 100 µM", "setting": "[2]; [7]", "result": 47.5, "unit": "%"},
      {"measurement": "activity at 100 µM", "setting": "[2]; [8]", "result": 38.4, "unit": "%"},
      {"measurement": "activity at 100 µM", "setting": "[2]; [9]", "result": 9.54, "unit": "%"},
      {"measurement": "activity at 100 µM", "setting": "[2]; [10]", "result": 65, "unit": "%"},
      {"measurement": "minimal effective concentration", "setting": "[2]; 24 hr, read-out: huvec.cyto.24hr POD", "result": 5.19, "unit": "µM"},
      {"measurement": "minimal effective concentration", "setting": "[2]; 24 hr, read-out: huvec.mito.24hr POD", "result": 4.06, "unit": "µM"},
      {"measurement": "minimal effective concentration", "setting": "[2]; 24 hr, read-out: huvec.mitoint.24hr POD", "result": 34.4, "unit": "µM"},
      {"measurement": "minimal effective concentration", "setting": "[2]; 24 hr, read-out: huvec.nma.24hr POD", "result": 1.6, "unit": "µM"},
      {"measurement": "viability at 0.01 µM", "setting": "[2]; [11]", "result": 88.2, "unit": "%"},
      {"measurement": "viability at 0.1 µM", "setting": "[2]; [11]", "result": 84.3, "unit": "%"},
      {"measurement": "viability at 1 µM", "setting": "[2]; [11]", "result": 93.2, "unit": "%"},
      {"measurement": "viability at 10 µM", "setting": "[2]; [11]", "result": 90.3, "unit": "%"},
      {"measurement": "viability at 100 µM", "setting": "[2]; [11]", "result": 84.1, "unit": "%"},
      {"measurement": "minimal effective concentration", "setting": "[2]; 24 hrs, read-out: huvec.tc.24hrs POD", "result": 5.19, "unit": "µM"}
    ]}
  ]
}
